According to patent US10562869B2, “Oxadiazole compounds” (REMYND NV, priority 2014, dated 2020):

Each compound was assayed on M17_3SYN cells (assay: Paraquat-induced cytotoxicity (LDH) in α-synuclein over-expressing M17_3SYN neuroblastoma cells). Details: Homo sapiens, Neuroblastoma cell, 48 h, toxicity inhibition (LDH) in M17_3SYN cells challenged with 6 mM paraquat, 2 days; read-out: SYN EC50.
Type: cell-based, human
Description: A α-synuclein expression plasmid was constructed by subcloning the NcoI/XhoI fragment from 212T-SYN(WT) (Griffioen et al., Biochem Biophys Acta (2006) 1762(3):312-318) containing the cDNA of human wild type α-synuclein correspondingly into a standard mammalian expression vector pcDNA3.1 resulting in plasmid pcDNA3.1-SYNwt. Plasmids pcDNA3.1 and pcDNA3.1-SYNwt were transfected into human neuroblastoma cells (BE-M17; ATCC No. CRL-2267™) using lipofectamine reagent and subsequently, independent clonal cell lines with the plasmids stably integrated into the genome were selected by antibiotic resistance selection (Geneticin (G418)), resulting in cell lines M17.pcDNA3 and M17_3SYN. Overexpression of α-synuclein in the M17_3SYN cell line was confirmed by Western blot analysis.
Due to the high levels of α-synuclein, M17_3SYN cells were sensitive to paraquat, a well-known risk factor Parkinson's disease and of synuclein-dependent neuronal degeneration. Cytotoxicity of cells was measured by quantification of lactate dehydrogenase (LDH) levels. In dead cells, LDH leaked out of the cells into the medium due to a loss of plasma-membrane integrity.
[…], primary pre-cultures of M17.pcDNA3 (as possible control) and M17_3SYN cells were prepared, starting from a stock culture, at a density of 20.000-40.000 cells/cm2 in culture medium (Opti-MEM® Reduced Serum Medium with Phenol Red (Invitrogen, Cat. 31985-047) supplemented with 10% FCS, 1 mM sodium pyruvate, 1×NEAA, 500 μg/ml G418 and 0.5×antibiotic/antimycotic (ABAM)). 3 days later these primary pre-cultures were used as a starting point to make secondary pre-cultures at a density of 50.000-100.000 cells/cm^2. At the day of the experiment these secondary precultures were diluted to ˜0.5·10^6 cells/ml in detection medium (Opti-MEM® Reduced-Serum Medium without Phenol Red (Invitrogen, Cat. 11085-021) supplemented with 10% FCS, 1 mM sodium pyruvate, 1×NEAA, 500 μg/ml G418 and 0.5×ABAM) and 60 μL of this suspension was dispensed per well into a 96-well microtiter plate. After 3 hours of incubation at 37° C./5% CO2 an equal volume of detection medium containing a final concentration of 6 mM Paraquat was added and subsequently incubated for 2 days at 37° C./5% CO2. Then LDH activity was determined using the Promega Cytotox 96 Non-Radioactive cytotoxicity assay (Promega, Cat. G1780), according to the manufacturer's instructions. Cytotoxicity was defined as the ratio of LDH relative to the total LDH in the cells and supernatant.
The assay described above using the M17_3SYN cell line allowed screening compounds for their ability to decrease cytotoxicity in PQ-challenged cells. Compounds of the invention were tested for their ability to decrease toxicity at different concentrations, ranging from low non-effective concentrations to high effective concentrations. Afterwards, a dose-dependent inhibition curve was used to calculate the EC50. A compound was considered to be active in this test when it inhibited toxicity by more than 20% relative to untreated M17_3SYN cells at a concentration of 10 μM or lower.

Point of comparison: `COc1ccc(S(=O)(=O)N2CCN(c3nc(CC4CC4)no3)CC2)cc1` [Cmpd159, 3-(Cyclopropylmethyl)-5-(4-((4-methoxyphenyl)sulfonyl)piperazin-1-yl)-1,2,4-oxadiazole], EC50 95 nM. Against it:
- COc1ccc(S(=O)(=O)N2CCN(c3nc(Cc4cccc(F)c4)no3)CC2)cc1 [Cmpd084, 1-[3-(3-Fluoro-benzyl)-[1,2,4]oxadiazol-5-yl]-4-(4-methoxy-benzenesulfonyl)-piperazine] — 19-fold lower, 5 nM
- CCOc1ccc(S(=O)(=O)N2CCN(c3nc(Cc4ccc(Cl)cc4)no3)CC2)cc1 [Cmpd053, 1-[3-(4-Chloro-benzyl)-[1,2,4]oxadiazol-5-yl]-4-(4-ethoxy-benzenesulfonyl)-piperazine] — 3.1-fold lower, 31 nM
- O=S(=O)(c1ccc(OC(F)F)cc1)N1CCN(c2nc(Cc3ccc(Cl)cc3)no2)CC1 [Cmpd054, 1-[3-(4-Chloro-benzyl)-[1,2,4]oxadiazol-5-yl]-4-(4-difluoromethoxy-benzenesulfonyl)-piperazine] — 5-fold lower, 19 nM
- O=S(=O)(c1ccc(OC(F)F)cc1)N1CCN(c2nc(Cc3cccc(F)c3)no2)CC1 [Cmpd092, 1-(4-Difluoromethoxy-benzenesulfonyl)-4-[3-(3-fluoro-benzyl)-[1,2,4]oxadiazol-5-yl]-piperazine] — 2-fold lower, 47 nM
- COc1ccc(S(=O)(=O)N2CCN(c3nc(Cc4cccc(Cl)c4)no3)CC2)cc1 [Cmpd072, 1-[3-(3-Chloro-benzyl)-[1,2,4]oxadiazol-5-yl]-4-(4-methoxy-benzenesulfonyl)-piperazine] — 32-fold lower, 3 nM
- O=S(=O)(c1cccc(C(F)(F)F)c1)N1CCN(c2nc(Cc3cccc(F)c3)no2)CC1 [Cmpd088, 1-[3-(3-Fluoro-benzyl)-[1,2,4]oxadiazol-5-yl]-4-(3-trifluoromethyl-benzenesulfonyl)-piperazine] — 19-fold higher, 1840 nM
- CSc1ccc(S(=O)(=O)N2CCN(c3nc(CC(F)(F)F)no3)CC2)cc1 [Cmpd168, 5-(4-((4-(Methylthio)phenyl)sulfonyl)piperazin-1-yl)-3-(2,2,2-trifluoroethyl)-1,2,4-oxadiazole] — 2.1-fold higher, 198 nM
- O=S(=O)(c1ccc(OC(F)F)cc1)N1CCN(c2nc(CCC(F)(F)F)no2)CC1 [Cmpd173, 5-(4-((4-(Difluoromethoxy)phenyl)sulfonyl)piperazin-1-yl)-3-(3,3,3-trifluoropropyl)-1,2,4-oxadiazole] — 4.6-fold higher, 438 nM
- CCOc1ccc(S(=O)(=O)N2CCN(c3nc(Cc4cccc(Cl)c4)no3)CC2)cc1 [Cmpd073, 1-[3-(3-Chloro-benzyl)-[1,2,4]oxadiazol-5-yl]-4-(4-ethoxy-benzenesulfonyl)-piperazine] — 2.9-fold lower, 33 nM
- CCCCc1noc(N2CCN(S(=O)(=O)c3ccc(OC)cc3)CC2)n1 [Cmpd208, 3-Butyl-5-(4-((4-methoxyphenyl)sulfonyl)piperazin-1-yl)-1,2,4-oxadiazole] — within 1.5-fold, 98 nM
- Cc1ccc(-c2noc(N3CCN(S(=O)(=O)c4ccc(C(F)(F)F)cc4)CC3)n2)cc1 [Cmpd016, 3-(p-Tolyl)-5-(4-((4-(trifluoromethyl)phenyl)sulfonyl)piperazin-1-yl)-1,2,4-oxadiazole] — 11-fold lower, 9 nM
- CSc1ccc(S(=O)(=O)N2CCN(c3nc(CC4CC4)no3)CC2)cc1 [Cmpd161, 3-(Cyclopropylmethyl)-5-(4-((4-(methylthio)phenyl)sulfonyl)piperazin-1-yl)-1,2,4-oxadiazole] — 4.1-fold lower, 23 nM
- COc1ccc(S(=O)(=O)N2CCN(c3nc(CC(F)(F)F)no3)CC2)cc1 [Cmpd165, 5-(4-((4-Methoxyphenyl)sulfonyl)piperazin-1-yl)-3-(2,2,2-trifluoroethyl)-1,2,4-oxadiazole] — 3-fold lower, 32 nM
- COc1ccc(S(=O)(=O)N2CCN(c3nc(C4C[C@@H]5CC[C@H]4C5)no3)CC2)cc1 (stereo partly drawn) [Cmpd190, 3-((1S,4R)-bicyclo[2.2.1]heptan-2-yl)-5-(4-((4-methoxyphenyl)sulfonyl)piperazin-1-yl)-1,2,4-oxadiazole] — 2.3-fold higher, 215 nM
- CCOc1ccc(S(=O)(=O)N2CCN(c3nc(CC4CC4)no3)CC2)cc1 [Cmpd162, 3-(Cyclopropylmethyl)-5-(4-((4-ethoxyphenyl)sulfonyl)piperazin-1-yl)-1,2,4-oxadiazole] — 2.4-fold higher, 224 nM
- CCOc1ccc(S(=O)(=O)N2CCN(c3nc(C(F)(F)c4ccc(F)cc4)no3)CC2)cc1 [Cmpd147, 1-{3-[Difluoro-(4-fluoro-phenyl)-methyl]-[1,2,4]oxadiazol-5-yl}-4-(4-ethoxy-benzenesulfonyl)-piperazine] — 4.3-fold lower, 22 nM
- CCOc1ccc(S(=O)(=O)N2CCN(c3nc(Cc4ccc(F)c(F)c4)no3)CC2)cc1 [Cmpd100, 1-[3-(3,4-Difluoro-benzyl)-[1,2,4]oxadiazol-5-yl]-4-(4-ethoxy-benzenesulfonyl)-piperazine] — within 1.5-fold, 130 nM
- O=S(=O)(c1ccc(OC(F)F)cc1)N1CCN(c2nc(Cc3ccc(F)c(F)c3)no2)CC1 [Cmpd101, 1-[3-(3,4-Difluoro-benzyl)-[1,2,4]oxadiazol-5-yl]-4-(4-difluoromethoxy-benzenesulfonyl)-piperazine] — 1.9-fold lower, 50 nM
- O=S(=O)(c1ccc(OC(F)F)cc1)N1CCN(c2nc(C3C[C@@H]4CC[C@H]3C4)no2)CC1 (stereo partly drawn) [Cmpd192, 3-((1 S,4R)-bicyclo[2.2.1]heptan-2-yl)-5-(4-((4-(difluoromethoxy)phenyl)sulfonyl)piperazin-1-yl)-1,2,4-oxadiazole] — 1.7-fold higher, 164 nM
- COc1ccc(S(=O)(=O)N2CCN(c3nc(CCC(F)(F)F)no3)CC2)cc1 [Cmpd171, 5-(4-((4-Methoxyphenyl)sulfonyl)piperazin-1-yl)-3-(3,3,3-trifluoropropyl)-1,2,4-oxadiazole] — 2.6-fold higher, 248 nM
- COc1ccc(S(=O)(=O)N2CCN(c3nc(COc4cccc(Cl)c4)no3)CC2)cc1 [Cmpd201, 3-((3-Chlorophenoxy)methyl)-5-(4-((4-methoxyphenyl)sulfonyl)piperazin-1-yl)-1,2,4-oxadiazole] — 8.6-fold lower, 11 nM
- COc1ccc(S(=O)(=O)N2CCN(c3nc(Cc4ccnc(C)c4)no3)CC2)cc1 [Cmpd169, 1-(4-Methoxy-benzenesulfonyl)-4-[3-(2-methyl-pyridin-4-ylmethyl)-[1,2,4]oxadiazol-5-yl]-piperazine] — 2.8-fold lower, 34 nM
- COc1ccc(S(=O)(=O)N2CCN(c3nc(COc4cccnc4)no3)CC2)cc1 [Cmpd204, 5-(4-((4-Methoxyphenyl)sulfonyl)piperazin-1-yl)-3-((pyridin-3-yloxy)methyl)-1,2,4-oxadiazole] — within 1.5-fold, 65 nM
- O=S(=O)(c1ccc(OC(F)F)cc1)N1CCN(c2nc(CC(F)(F)F)no2)CC1 [Cmpd167, 5-(4-((4-(Difluoromethoxy)phenyl)sulfonyl)piperazin-1-yl)-3-(2,2,2-trifluoroethyl)-1,2,4-oxadiazole] — 110-fold higher, 10000 nM
- COc1ccc(S(=O)(=O)N2CCN(c3nc(C4CCCCC4)no3)CC2)cc1 [Cmpd210, 3-Cyclohexyl-5-(4-((4-methoxyphenyl)sulfonyl)piperazin-1-yl)-1,2,4-oxadiazole] — 3.4-fold higher, 327 nM
- COc1ccc(S(=O)(=O)N2CCN(c3nc(COc4ccc(Cl)cc4)no3)CC2)cc1 [Cmpd200, 3-((4-Chlorophenoxy)methyl)-5-(4-((4-methoxyphenyl)sulfonyl)piperazin-1-yl)-1,2,4-oxadiazole] — 4.3-fold lower, 22 nM
- O=S(=O)(c1ccc(OC(F)F)cc1)N1CCN(c2nc(C(F)(F)c3ccc(F)cc3)no2)CC1 [Cmpd148, 1-{3-[Difluoro-(4-fluoro-phenyl)-methyl]-[1,2,4]oxadiazol-5-yl}-4-(4-difluoromethoxy-benzenesulfonyl)-piperazine] — 2.8-fold lower, 34 nM
- CC(C)(c1ccccc1)c1noc(N2CCN(S(=O)(=O)c3ccc(OC(F)F)cc3)CC2)n1 [Cmpd196, 1-(4-Difluoromethoxy-benzenesulfonyl)-4-[3-(1-methyl-1-phenyl-ethyl)-[1,2,4]oxadiazol-5-yl]-piperazine] — 12-fold lower, 8 nM
- CC(C)(c1cccc(Cl)c1)c1noc(N2CCN(S(=O)(=O)c3ccc(OC(F)F)cc3)CC2)n1 [Cmpd154, 1-{3-[1-(3-Chloro-phenyl)-1-methyl-ethyl]-[1,2,4]oxadiazol-5-yl}-4-(4-difluoromethoxy-benzenesulfonyl)-piperazine] — 14-fold lower, 7 nM
